Laboratory results as given in patent US6413531B1, “Potentiation of biocide activity using a diethanolamide” (Buckman Laboratories International, Inc., priority 1998, dated 2002).

System: Pseudomonas aeruginosa ("Ps. aeruginosa") ATCC 15442
Assay: Antibacterial test, growth/no-growth (MIC) in liquid medium
Assay type: cell-based
Conditions: within the concentration range tested, i.e., up to 2000 ppm
Method: The following materials and procedure were used to determine the potentiating effect of a diethanolamide with various biocides.
(1) Pseudomonas aeruginosa (“Ps. aeruginosa”) ATCC 15442 (a bacterium)
NaCl, 8.0 g; glucose, 1.0 g; tryptone, 1.0 g; DI water, 1.0 L.
5 ml of growth medium were suspended in test tubes, and the culture medium was autoclaved at 121° C. for 20 min. Biocide stock aqueous solutions were added in each tube to give the desired biocide-diethanolamide concentrations in parts per million. No biocide was added to the control tubes. All tubes were inoculated by adding 0.1 ml of inoculum to give a bacterial concentration of about 10^6 cells/ml (10^6 spores/ml for fungal test). After each addition, the tubes were shaken vigorously to mix the contents thoroughly. All inoculated tubes were placed at 37° C. for antibacterial test and at 28° C. for antifungal test. Bacterial growth was checked after 5-7 days and fungal growth was checked after 10-14 days.
The MIC of each biocide and diethanolamide acting alone and in combination was determined on a growth-no-growth basis. Tables 1-16 present both the lowest concentrations of each biocide and diethanolamide separately for which there was no growth, and the lowest concentration of biocide in combination with diethanolamide for which there was no growth. […]

## (RS)-1- 2-[(2,4-dichlorophenyl)-2-propyl-1,3-dioxalan-2ylmethyl]-1H-1,2,4-triazole [propiconazole]
  antibacterial activity: does not have any antibacterial activity
